“And” between values parts separate entries of the source, which are not always exact repeats. Identical values can stand only once.
Assays:
PAT [1] = molecular target: T1, PAT (Penicillium chrysogenum, UniProt P15802); assay: Substrate specificity of purified PAT (fraction AL 278/2), specific enzyme activity by HPLC; type: biochemical, Penicillium chrysogenum P2/ATCC 48271
PAT [2] = molecular target: T1, PAT; assay: Microbiological agar diffusion test (Micrococcus luteus ATCC 9341/BC 85) of transacylation of Isopenicillin N with PaCoA by enzyme preparation AS-Präzipitat; type: biochemical, Penicillium chrysogenum P2/ATCC 48271
Method: (§1) Die, wie in Beispiel 2 beschrieben, hergestellte Enzymrohpräzipitation wird im mikrobiologischen Agardiffusionstest hinsichtlich Transacylierung von 6-APA bzw. Isopenicillin N mit PaCoA und Spaltung von Kalium Penicillin V mit bzw. ohne Inhibitorzusatz folgendermaßen getestet: Testkeim: Micrococcus luteus ATCC 9341/BC 85, 0,5% Einsaat Testmedium: Antibiotic Medium 1 (DIFCO), 110 ml Testplatte: Nunc 243x243x18 mm Probe: 50 µl pro Näpfchen (6 mm Durchmesser) Inkubation: 37°, 15 Stunden Enzym: AS-Präzipitat (hergestellt wie in Beispiel 2 beschrieben): 1 ml zentrifugiert (20.000 Upm/10 min), Überstand verworfen, Pellet in 20 ml RP + Z resuspendiert. RP + Z: 0,1 M Phosphatpuffer pH 7,5 + 1 mM DTT + 10 mM MgCl₂
Sofort bzw. nach 7, 30 und 60 Minuten Inkubationszeit werden 20 µl Aliquots der Ansätze entnommen, 1:5 mit 50% Ethanol (Stoppen der Enzymreaktion) verdünnt und im Agardiffusionstest auf Penicillingehalt getestet.

[3] = tested on: Micrococcus luteus ATCC 9341/BC 85; assay: Agar diffusion test of penicillin standards (inhibition zone diameter); type: cell-based
PAT [4] = molecular target: T1, PAT; assay: Penicillin V cleavage by AS-Präzipitat, residual penicillin by agar diffusion test; type: biochemical, Penicillium chrysogenum P2/ATCC 48271
Method: as §1

PAT [5] = molecular target: T1, PAT; assay: Microbiological test of 6-APA-PaCoA acyltransferase activity (acylation of 6-APA with PaCoA to Penicillin V), indicator strain Micrococcus luteus ATCC 9341/BC 85; type: biochemical, Penicillium chrysogenum P2/ATCC 48271
[6] = labelled substance = Acylakzeptor, Acyldonator PaCoA

T1 sequence (P15802 103-357 limits assumed): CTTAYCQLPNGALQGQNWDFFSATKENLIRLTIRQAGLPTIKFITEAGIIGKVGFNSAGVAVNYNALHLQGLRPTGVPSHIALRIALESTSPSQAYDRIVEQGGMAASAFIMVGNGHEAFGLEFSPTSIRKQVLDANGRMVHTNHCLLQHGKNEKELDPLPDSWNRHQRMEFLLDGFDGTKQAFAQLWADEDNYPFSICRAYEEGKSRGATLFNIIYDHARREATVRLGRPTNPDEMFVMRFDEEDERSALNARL
T1 sequence (P15802 1-102 limits assumed): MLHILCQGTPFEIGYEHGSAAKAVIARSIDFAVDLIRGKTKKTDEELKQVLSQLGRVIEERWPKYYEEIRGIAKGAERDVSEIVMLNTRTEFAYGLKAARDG

## CC1=C(C(=O)O)N2C(=O)[C@@H](N)[C@H]2SC1 [7-ADCA, 7-Amino-3-desacetoxycephalosporansäure]
PAT [1]; [6]
  mittels HPLC bestimmte spezifische Enzymaktivität (mU/mg Protein) A1 278/2: 49 mU/mg Protein

## CC1(C)S[C@@H]2[C@H](NC(=O)CCC[C@H](N)C(=O)O)C(=O)N2[C@H]1C(=O)O [Isopenicillin N Nr. 28, Isopenicillin N]
PAT [2]; a) ohne Inhibitor, 7′, listed as Nr. 28
  Transacylierung von Isopenicillin N (#28 u 36) mit PaCoA (HH ⌀ mm): 25.5 mm
PAT [2]; a) ohne Inhibitor, 30′, listed as Nr. 28
  Transacylierung von Isopenicillin N (#28 u 36) mit PaCoA (HH ⌀ mm): 26.0 mm
PAT [2]; a) ohne Inhibitor, 60′, listed as Nr. 28
  Transacylierung von Isopenicillin N (#28 u 36) mit PaCoA (HH ⌀ mm): 23.0 mm
PAT [2]; a) ohne Inhibitor, s (sofort), listed as Nr. 28
  Transacylierung von Isopenicillin N (#28 u 36) mit PaCoA (HH ⌀ mm): 22.5 mm
PAT [2]; b) 2 mM Jodacetamid, 7′, listed as Nr. 28
  Transacylierung von Isopenicillin N (#28 u 36) mit PaCoA (HH ⌀ mm): 20.8 mm
PAT [2]; b) 2 mM Jodacetamid, 30′, listed as Nr. 28
  Transacylierung von Isopenicillin N (#28 u 36) mit PaCoA (HH ⌀ mm): 18.3 mm
PAT [2]; b) 2 mM Jodacetamid, 60′, listed as Nr. 28
  Transacylierung von Isopenicillin N (#28 u 36) mit PaCoA (HH ⌀ mm): 14.7 mm
PAT [2]; b) 2 mM Jodacetamid, s (sofort), listed as Nr. 28
  Transacylierung von Isopenicillin N (#28 u 36) mit PaCoA (HH ⌀ mm): 21.1 mm
PAT [2]; c) 2 mM PMSF, 7′, listed as Nr. 28
  Transacylierung von Isopenicillin N (#28 u 36) mit PaCoA (HH ⌀ mm): 24.7 mm
PAT [2]; c) 2 mM PMSF, 30′, listed as Nr. 28
  Transacylierung von Isopenicillin N (#28 u 36) mit PaCoA (HH ⌀ mm): 25.7 mm
PAT [2]; c) 2 mM PMSF, 60′, listed as Nr. 28
  Transacylierung von Isopenicillin N (#28 u 36) mit PaCoA (HH ⌀ mm): 20.7 mm
PAT [2]; c) 2 mM PMSF, s (sofort), listed as Nr. 28
  Transacylierung von Isopenicillin N (#28 u 36) mit PaCoA (HH ⌀ mm): 22.7 mm
[3]; Micrococcus luteus, ATCC9341, 15 h, read-out: HH ⌀ mm, Isopenicillin N Std. 12.5 µg/ml
  zone of inhibition at 12.5 µg/mL: 12.4 mm
[3]; Micrococcus luteus, ATCC9341, 15 h, read-out: HH ⌀ mm, Isopenicillin N Std. 25 µg/ml
  zone of inhibition at 25 µg/mL: 16.5 mm
[3]; Micrococcus luteus, ATCC9341, 15 h, read-out: HH ⌀ mm, Isopenicillin N Std. 50 µg/ml
  zone of inhibition at 50 µg/mL: 20 mm

## CC1(C)S[C@@H]2[C@H](NC(=O)COc3ccccc3)C(=O)N2[C@H]1C(=O)O [Kalium Penicillin V]
PAT [4]; a) ohne Inhibitor, 7′
  Spaltung von Kalium Penicillin V (HH ⌀ mm): 21.8 mm
PAT [4]; a) ohne Inhibitor, 30′
  Spaltung von Kalium Penicillin V (HH ⌀ mm): 0 mm
PAT [4]; a) ohne Inhibitor, 60′
  Spaltung von Kalium Penicillin V (HH ⌀ mm): 0 mm
PAT [4]; a) ohne Inhibitor, s
  Spaltung von Kalium Penicillin V (HH ⌀ mm): 25.7 mm
PAT [4]; b) + 2 mM Jodacetamid, 7′
  Spaltung von Kalium Penicillin V (HH ⌀ mm): 23.1 mm
PAT [4]; b) + 2 mM Jodacetamid, 30′
  Spaltung von Kalium Penicillin V (HH ⌀ mm): 0 mm
PAT [4]; b) + 2 mM Jodacetamid, 60′
  Spaltung von Kalium Penicillin V (HH ⌀ mm): 0 mm
PAT [4]; b) + 2 mM Jodacetamid, s
  Spaltung von Kalium Penicillin V (HH ⌀ mm): 25.7 mm
PAT [4]; c) + 2 mM Ethylmaleinimid, 7′
  Spaltung von Kalium Penicillin V (HH ⌀ mm): 23.0 mm
PAT [4]; c) + 2 mM Ethylmaleinimid, 30′
  Spaltung von Kalium Penicillin V (HH ⌀ mm): 0 mm
PAT [4]; c) + 2 mM Ethylmaleinimid, 60′
  Spaltung von Kalium Penicillin V (HH ⌀ mm): 0 mm
PAT [4]; c) + 2 mM Ethylmaleinimid, s
  Spaltung von Kalium Penicillin V (HH ⌀ mm): 25.0 mm
PAT [4]; d) + 2 mM PMSF, 7′
  Spaltung von Kalium Penicillin V (HH ⌀ mm): 0 mm
PAT [4]; d) + 2 mM PMSF, 30′
  Spaltung von Kalium Penicillin V (HH ⌀ mm): 0 mm
PAT [4]; d) + 2 mM PMSF, 60′
  Spaltung von Kalium Penicillin V (HH ⌀ mm): 0 mm
PAT [4]; d) + 2 mM PMSF, s
  Spaltung von Kalium Penicillin V (HH ⌀ mm): 25.3 mm
[3]; Penicillin V Std. 0.25 µg/ml
  HH ⌀ mm: 11.9 mm
[3]; Penicillin V Std. 0.5 µg/ml
  HH ⌀ mm: 18.4 mm
[3]; Penicillin V Std. 1.0 µg/ml
  HH ⌀ mm: 23.4 mm
[3]; Penicillin V Std. 1.5 µg/ml
  HH ⌀ mm: 24.7 mm
[3]; Penicillin V Std. 2.0 µg/ml
  HH ⌀ mm: 27.4 mm

## CC(=O)OCC1=C(C(=O)O)N2C(=O)[C@@H](NC(=O)CCC[C@@H](N)C(=O)O)[C@H]2SC1 [Cephalosporin C]
PAT [1]; [6]
  mittels HPLC bestimmte spezifische Enzymaktivität (mU/mg Protein) A1 278/2: 0 mU/mg Protein

## CC1(C)S[C@@H]2[C@H](N)C(=O)N2[C@H]1C(=O)O [6-APA, 6-Aminopenicillansäure]
PAT [5]
  Als Vergleich Transacylierung 6-APA + PaCoA → Penicillin V: 17.0 mm and 23.2 mm and 26.9 mm and 25.9 mm
PAT [1]; [6]
  mittels HPLC bestimmte spezifische Enzymaktivität (mU/mg Protein) A1 278/2: 393 mU/mg Protein
PAT [1]; labelled substance = Acylakzeptor, Acyldonator PeCoA
  mittels HPLC bestimmte spezifische Enzymaktivität (mU/mg Protein) A1 278/2: 329 mU/mg Protein

## CC1(C)S[C@@H]2[C@H](NC(=O)CCC[C@H](N)C(=O)O)C(=O)N2[C@H]1C(=O)O [Isopenicillin N Nr. 36, Isopenicillin N]
PAT [2]; a) ohne Inhibitor, 7′, listed as Nr. 36
  Transacylierung von Isopenicillin N (#28 u 36) mit PaCoA (HH ⌀ mm): 28.3 mm
PAT [2]; a) ohne Inhibitor, 30′, listed as Nr. 36
  Transacylierung von Isopenicillin N (#28 u 36) mit PaCoA (HH ⌀ mm): 30.8 mm
PAT [2]; a) ohne Inhibitor, 60′, listed as Nr. 36
  Transacylierung von Isopenicillin N (#28 u 36) mit PaCoA (HH ⌀ mm): 28.7 mm
PAT [2]; a) ohne Inhibitor, s (sofort), listed as Nr. 36
  Transacylierung von Isopenicillin N (#28 u 36) mit PaCoA (HH ⌀ mm): 27.0 mm
PAT [2]; b) 2 mM Jodacetamid, 7′, listed as Nr. 36
  Transacylierung von Isopenicillin N (#28 u 36) mit PaCoA (HH ⌀ mm): 25.0 mm
PAT [2]; b) 2 mM Jodacetamid, 30′, listed as Nr. 36
  Transacylierung von Isopenicillin N (#28 u 36) mit PaCoA (HH ⌀ mm): 23.6 mm
PAT [2]; b) 2 mM Jodacetamid, 60′, listed as Nr. 36
  Transacylierung von Isopenicillin N (#28 u 36) mit PaCoA (HH ⌀ mm): 22.1 mm
PAT [2]; b) 2 mM Jodacetamid, s (sofort), listed as Nr. 36
  Transacylierung von Isopenicillin N (#28 u 36) mit PaCoA (HH ⌀ mm): 25.2 mm
PAT [2]; c) 2 mM PMSF, 7′, listed as Nr. 36
  Transacylierung von Isopenicillin N (#28 u 36) mit PaCoA (HH ⌀ mm): 27.2 mm
PAT [2]; c) 2 mM PMSF, 30′, listed as Nr. 36
  Transacylierung von Isopenicillin N (#28 u 36) mit PaCoA (HH ⌀ mm): 27.7 mm
PAT [2]; c) 2 mM PMSF, 60′, listed as Nr. 36
  Transacylierung von Isopenicillin N (#28 u 36) mit PaCoA (HH ⌀ mm): 26.7 mm
PAT [2]; c) 2 mM PMSF, s (sofort), listed as Nr. 36
  Transacylierung von Isopenicillin N (#28 u 36) mit PaCoA (HH ⌀ mm): 26.3 mm
[3]; Isopenicillin N Std. 12.5 µg/ml
  HH ⌀ mm: 18.4 mm
[3]; Isopenicillin N Std. 25 µg/ml
  HH ⌀ mm: 22.1 mm
[3]; Isopenicillin N Std. 50 µg/ml
  HH ⌀ mm: 24.5 mm

## 7-Glutaryl-APA
PAT [1]; labelled substance = Acyldonator, Acylakzeptor H₂O, Produkt 6-APA
  mittels HPLC bestimmte spezifische Enzymaktivität (mU/mg Protein) A1 278/2: 106 mU/mg Protein

Reference: patent publication EP0336446A1, “Gene and gene product for the production of beta-lactam-compounds” (BIOCHEMIE GESELLSCHAFT M.B.H., priority 1988, dated 1989)
